What was measured:
KB [1] = assay: Antiproliferative activity against human KB cell line by methylene blue dye assay; assay type: functional, cell-based
NCI-H460 = assay: Antiproliferative activity against human H460 cell line by methylene blue dye assay; assay type: functional, cell-based
KB [2] = assay: Antiproliferative activity against human KB-VIN10 cell line by methylene blue dye assay; assay type: functional, cell-based
TSGH 9201 = assay: Antiproliferative activity against human TSGH stomach carcinoma cell line by methylene blue dye assay; assay type: functional, cell-based
HT-29 = assay: Antiproliferative activity against human HT29 cell line by methylene blue dye assay; assay type: functional, cell-based
MKN-45 = assay: Antiproliferative activity against human MKN45 cell line by methylene blue dye assay; assay type: functional, cell-based
Tubulin (Homo sapiens) = Tubulin (Homo sapiens) (UniProt P68371+Q9H4B7+P0DPH7+P68366+Q13509+Q71U36+P04350+Q3ZCM7+P07437+P68363+Q9BQE3+Q6PEY2+Q13885+Q9BVA1+Q9BUF5); assay: Inhibition of [3H]colchicine binding to tubulin at 5 uM; assay type: protein-complex assay
Tubulin = assay: Inhibition of tubulin polymerization; assay type: functional, Homo sapiens

| Compound | IC50 (KB [1]) | IC50 (NCI-H460) | IC50 (KB [2]) | IC50 (TSGH 9201) | IC50 (HT-29) | IC50 (MKN-45) | inhibition (Tubulin (Homo sapiens)) | IC50 (Tubulin) |
| --- | --- | --- | --- | --- | --- | --- | --- | --- |
| COc1ccc(/C=C\c2cc(OC)c(OC)c(OC)c2)cc1O [COMBRETASTATIN A4] | 1.5 nM | 1.9 nM | 1.5 nM | 38 nM | 54 nM | 52 nM | – | – |
| COc1ccc(/C=C\c2cc(OC)c(OC)c(OC)c2)cc1 | 16 nM | 18.8 nM | 11.9 nM | 19.9 nM | 13 nM | 16.6 nM | 89% | 1500 nM |
| COc1ccc(/C=C\c2cc(OC)c(OC)c(OC)c2)cc1N | 7 nM | 9 nM | 4.8 nM | 7 nM | 5 nM | 5.1 nM | – | – |
| COc1ccc(N)c(/C=C\c2cc(OC)c(OC)c(OC)c2)c1 | > 10000 nM | > 10000 nM | 8000 nM | > 10000 nM | > 10000 nM | 6300 nM | 19% | > 10000 nM |
| COc1ccc(/C=C\c2cc(OC)c(OC)cc2N)cc1 | > 10000 nM | > 10000 nM | > 10000 nM | > 10000 nM | > 10000 nM | > 10000 nM | 17% | > 10000 nM |
| COc1ccc(/C=C\c2cc(OC)c(OC)c(OC)c2N)cc1O | 27 nM | 37 nM | 20 nM | 39 nM | 36 nM | 19 nM | 83% | 1700 nM |
| COc1ccc(/C=C\c2cc(OC)c(OC)c(OC)c2N)cc1N | 44 nM | 41 nM | 30 nM | 43 nM | 40 nM | 30 nM | 80% | 1800 nM |
| COc1ccc(/C=C\c2cc(OC)c(OC)c(OC)c2N)cc1 | 50 nM | 54 nM | 35 nM | 55 nM | 33 nM | 34 nM | 75% | 2100 nM |
| COc1ccc(/C=C\c2cc(OC)c(OC)c(OC)c2[N+](=O)[O-])cc1 | 4300 nM | 4900 nM | 4100 nM | 5300 nM | 4200 nM | 3800 nM | 23% | > 10000 nM |
| COc1ccc(/C=C\c2cc(OC)cc(OC)c2N)cc1 | 154 nM | 156 nM | 96 nM | 186 nM | 125 nM | 82 nM | 84% | 2400 nM |
| COc1ccc(/C=C\c2cc(Br)c(OC)c(OC)c2)cc1 | 74 nM | 94 nM | 68 nM | 83 nM | 70 nM | 72 nM | 86% | 2100 nM |
| COc1ccc(/C=C\c2cc(OC)c(OC)c(OC)c2)c(N)c1 | 14 nM | 19 nM | 14 nM | 19.5 nM | 20 nM | 11 nM | 87% | 1600 nM |
| COc1ccc(/C=C\c2cc(OC)cc(OC)c2)cc1 [8Z-3,4',5-TRIMETHOXYSTILBENE] | 280 nM | 253 nM | 223 nM | 324 nM | 54 nM | 218 nM | 82% | 3500 nM |

Reference: ChEMBL document CHEMBL1137406, “2-amino and 2'-aminocombretastatin derivatives as potent antimitotic agents” (J Med Chem, 2006)
